In test [1] the target is T1, HBc (HBV core protein) in HepAD38 lysate (Hepatitis B virus ayw/France/Tiollais/1979, UniProt P03146).
T1 construct: gene C; full-length core expressed from the integrated tetracycline-regulated HBV genome of HepAD38 (HepG2-derived); freeze-thaw cell lysate
As to the kind of experiment: CETSA, Western blot. The following applies: cell lysate, 30 min at room temperature, then 37-72 °C for 3 min. Format: biochemical. A general note: In western blotting, separated proteins are transferred to a membrane and probed.

Test [2] concerns the target T2, HBc protein (HBV core protein), purchased (Hepatitis B virus ayw/France/Tiollais/1979, UniProt P03146).
T2 construct: gene C; purchased from Sino Biological; immobilised on CM5 chip
The test can be described thus: SPR (Reichert4, CM5 chip). In kind it is binding.

T1 sequence (P03146 whole entry): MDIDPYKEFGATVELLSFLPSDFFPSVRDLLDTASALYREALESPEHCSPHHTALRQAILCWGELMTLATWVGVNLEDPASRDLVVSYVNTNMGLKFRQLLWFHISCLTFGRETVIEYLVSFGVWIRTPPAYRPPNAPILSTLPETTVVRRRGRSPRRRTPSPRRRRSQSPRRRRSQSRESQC
T2 sequence (P03146 whole entry): as above

Turning to `CC1(C)CC[C@]2(C(=O)O)CC[C@]3(C)[C@H](C(=O)C=C4[C@@]5(C)C=C(C#N)C(=O)C(C)(C)[C@@H]5CC[C@]43C)[C@@H]2C1` [CDDO, 2-cyano-3,12-dioxooleana-1,9-dien-28-oic acid], in test [1] (0.8 μM compound), the “thermal shift (right-shifted CETSA melting curve)” value was “CDDO-EA and CDDO treatments significantly stabilized HBc protein”. Moreover, in test [2], the SPR binding result was “compounds CDDO-EA and CDDO exhibited weak binding kinetics to HBc protein”.
With `CCNC(=O)[C@]12CCC(C)(C)C[C@H]1[C@H]1C(=O)C=C3[C@@]4(C)C=C(C#N)C(=O)C(C)(C)[C@@H]4CC[C@@]3(C)[C@]1(C)CC2` [CDDO-EA], in test [1] (0.4 μM compound), the “thermal shift (right-shifted CETSA melting curve)” value is “CDDO-EA and CDDO treatments significantly stabilized HBc protein”. Besides, the SPR binding entry in test [2] was “compounds CDDO-EA and CDDO exhibited weak binding kinetics to HBc protein”.
